# What was measured:
# ACC1 = ACC1 (Homo sapiens (Human), UniProt Q13085); assay: ACC1 enzyme activity assay (ADP-Glo); format: biochemical; details: ACC1 enzyme 2 nM working solution, room temperature
# Procedure: (§1) Compound preparation: the compounds of the present disclosure prepared in the above examples and the control compound were respectively formulated into 10 mM with DMSO for use.
# (§2) Preparation of 1× reaction buffer (pH=7.4): HEPES stock solutions (1 M), MgCl2 (1 M), BRIJ-35 (10%), potassium citrate buffer (1 M), BSA (10 mg/mL) and DTT (500 mM) were formulated to enzyme reaction buffer containing HEPES (50 mM), MgCl2 (2 mM), BRIJ-35 (0.01%), potassium citrate buffer (2 mM), BSA (50 Gg/mL) and DTT (2 mM).
# 4.5 μL of 2.2×ACC1 enzyme (2 nM) working solution was added to a 384-well plate; and then 0.5 μL of different concentrations of compound were added. The mixture was incubated at room temperature for 15 min.
# (§3) Negative control group: menstruum containing 5% DMSO; positive control group: menstruum containing 100 nM ND-630. The average values of each concentration and the positive and negative controls were calculated, and the standard deviation was calculated. […] The inhibition rate data was fitted by nonlinear regression equation to calculate IC50 of each compound. The nonlinear regression equation was Y=lowest value+(highest value−lowest value)/(1+10^((Log IC50−X)×HillSlope)), among which X is logarithm of the compound concentration and Y is inhibition percent (%).
# ACC2 = ACC2 (Homo sapiens (Human), UniProt O00763); assay: ACC2 enzyme activity assay (ADP-Glo); format: biochemical; details: ACC2 enzyme 1.1 nM working solution, room temperature
# ACC2, sequence (O00763 whole entry): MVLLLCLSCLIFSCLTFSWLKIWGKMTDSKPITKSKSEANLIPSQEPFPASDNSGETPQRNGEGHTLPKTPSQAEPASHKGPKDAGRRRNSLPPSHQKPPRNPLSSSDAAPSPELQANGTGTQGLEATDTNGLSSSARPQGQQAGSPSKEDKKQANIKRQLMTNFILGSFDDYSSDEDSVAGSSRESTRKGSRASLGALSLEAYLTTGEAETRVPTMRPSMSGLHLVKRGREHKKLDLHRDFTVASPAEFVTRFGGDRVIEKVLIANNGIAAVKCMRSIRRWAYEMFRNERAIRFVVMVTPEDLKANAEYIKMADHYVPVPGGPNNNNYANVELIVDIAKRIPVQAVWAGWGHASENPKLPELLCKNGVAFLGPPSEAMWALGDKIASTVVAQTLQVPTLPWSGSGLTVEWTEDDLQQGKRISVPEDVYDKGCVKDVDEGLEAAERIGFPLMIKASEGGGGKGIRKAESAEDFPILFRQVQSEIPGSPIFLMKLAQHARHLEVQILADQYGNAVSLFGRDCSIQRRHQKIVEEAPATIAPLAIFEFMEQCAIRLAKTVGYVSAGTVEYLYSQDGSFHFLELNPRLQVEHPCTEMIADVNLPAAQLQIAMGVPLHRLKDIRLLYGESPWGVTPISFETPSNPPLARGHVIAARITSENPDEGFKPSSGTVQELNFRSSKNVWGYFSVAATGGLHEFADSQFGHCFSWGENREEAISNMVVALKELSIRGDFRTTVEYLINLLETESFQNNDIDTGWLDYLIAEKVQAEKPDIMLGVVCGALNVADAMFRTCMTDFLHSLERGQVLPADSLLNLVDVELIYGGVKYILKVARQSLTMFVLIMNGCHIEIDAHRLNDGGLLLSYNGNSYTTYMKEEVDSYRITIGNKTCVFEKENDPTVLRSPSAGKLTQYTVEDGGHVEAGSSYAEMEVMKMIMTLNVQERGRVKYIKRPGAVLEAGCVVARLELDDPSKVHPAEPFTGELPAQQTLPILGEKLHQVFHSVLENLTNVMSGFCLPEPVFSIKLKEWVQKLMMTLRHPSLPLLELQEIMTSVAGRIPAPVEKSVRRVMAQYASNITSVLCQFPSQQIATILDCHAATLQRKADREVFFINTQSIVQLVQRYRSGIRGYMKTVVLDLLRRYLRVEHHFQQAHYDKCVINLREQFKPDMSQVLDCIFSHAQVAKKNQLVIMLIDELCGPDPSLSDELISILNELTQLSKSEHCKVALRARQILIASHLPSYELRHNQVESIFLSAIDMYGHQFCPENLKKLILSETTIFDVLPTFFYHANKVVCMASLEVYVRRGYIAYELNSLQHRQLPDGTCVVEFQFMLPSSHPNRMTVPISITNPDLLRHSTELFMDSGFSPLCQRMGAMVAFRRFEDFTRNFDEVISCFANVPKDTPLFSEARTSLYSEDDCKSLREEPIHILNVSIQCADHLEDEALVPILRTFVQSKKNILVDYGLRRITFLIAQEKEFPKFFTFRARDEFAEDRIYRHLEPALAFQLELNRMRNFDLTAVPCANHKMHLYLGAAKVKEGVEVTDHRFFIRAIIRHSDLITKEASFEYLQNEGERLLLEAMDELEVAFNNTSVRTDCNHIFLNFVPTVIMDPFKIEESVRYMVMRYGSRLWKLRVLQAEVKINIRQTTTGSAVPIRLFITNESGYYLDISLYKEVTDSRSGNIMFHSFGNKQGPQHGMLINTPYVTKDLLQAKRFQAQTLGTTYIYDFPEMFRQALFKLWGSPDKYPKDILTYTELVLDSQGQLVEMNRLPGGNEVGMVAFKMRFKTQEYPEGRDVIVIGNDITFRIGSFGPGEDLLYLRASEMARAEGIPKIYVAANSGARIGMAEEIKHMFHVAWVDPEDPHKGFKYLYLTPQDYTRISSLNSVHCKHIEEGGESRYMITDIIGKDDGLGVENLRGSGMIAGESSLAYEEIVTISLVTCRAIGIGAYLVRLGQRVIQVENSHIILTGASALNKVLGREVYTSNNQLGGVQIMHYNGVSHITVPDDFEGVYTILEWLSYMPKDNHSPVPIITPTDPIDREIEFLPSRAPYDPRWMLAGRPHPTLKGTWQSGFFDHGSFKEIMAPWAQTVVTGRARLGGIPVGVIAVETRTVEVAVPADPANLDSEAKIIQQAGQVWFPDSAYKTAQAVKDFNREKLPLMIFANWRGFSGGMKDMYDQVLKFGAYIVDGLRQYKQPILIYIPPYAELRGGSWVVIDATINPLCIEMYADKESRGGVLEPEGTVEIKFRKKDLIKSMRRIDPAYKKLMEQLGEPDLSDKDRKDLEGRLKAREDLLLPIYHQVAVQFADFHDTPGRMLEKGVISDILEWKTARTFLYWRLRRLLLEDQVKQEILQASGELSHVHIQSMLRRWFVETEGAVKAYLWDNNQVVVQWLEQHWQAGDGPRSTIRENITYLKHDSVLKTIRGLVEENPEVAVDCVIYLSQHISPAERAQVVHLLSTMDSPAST
# Procedure: as §1, §2
# The mixture was incubated at room temperature for 15 min.
# as §3
Compound,IC50 (ACC1) [nM],IC50 (ACC2) [nM]
"COc1ccccc1C(Cn1c(=O)n(C2CN(C(=O)c3ccccc3)C2)c(=O)c2c(C)c(-c3ncco3)sc21)OC1CCOCC1 (stereo not shown) [Example 11, 3-(1-benzoylazetidin-3-yl)-1-(2-(2-methoxyphenyl)-2-((tetrahydro-2H-pyran-4-yl)oxy)ethyl)-5-methyl-6-(oxazol-2-yl)thieno[2,3-d]pyrimidine-2,4(1H,3H)-dione]",4.5,
"COc1ccccc1C(Cn1c(=O)n(C2CN(C(=O)N3CC(C)(O)C3)C2)c(=O)c2c(C)c(-c3ncco3)sc21)OC1CCOCC1 (stereo not shown) [Example 16, 3-(1-(3-Hydroxy-3-methylazetidin-1-oyl)azetidin-3-yl)-1-(2-(2-methoxyphenyl)-2-((tetrahydro-2H-pyran-4-yl)oxy)ethyl)-5-methyl-6-(oxazol-2-yl)thieno[2,3-d]pyrimidine-2,4(1H,3H)-dione]",6.89,
"CCS(=O)(=O)N1CC(n2c(=O)c3c(C)c(-c4ncco4)sc3n(CC(OC3CCOCC3)c3ccccc3OC)c2=O)C1 (stereo not shown) [Example 10, 3-(1-(ethylsulfonyl)azetidin-3-yl)-1-(2-(2-methoxyphenyl)-2-((tetrahydro-2H-pyran-4-yl)oxy)ethyl)-5-methyl-6-(oxazol-2-yl)thieno[2,3-d]pyrimidine-2,4(1H, 3H)-dione]",1.35,6.85
"COc1ccccc1C(Cn1c(=O)n(C2CN(C(=O)C3CC3)C2)c(=O)c2c(C)c(-c3ncco3)sc21)OC1CCOCC1 (stereo not shown) [Example 8, 3-(1-(cyclopropanecarbonyl)azetidin-3-yl)-1-(2-(2-methoxyphenyl)-2-((tetrahydro-2H-pyran-4-yl)oxy)ethyl)-5-methyl-6-thieno[2,3-d]pyrimidine-2,4(1H,3H)-dione]",1.12,13.1
"COc1ccccc1C(Cn1c(=O)n(C(C)(C)C(=O)O)c(=O)c2c(C)c(-c3ncco3)sc21)OC1CCN(C)CC1 (stereo not shown) [Example 19, 2-(1-(2-(2-methoxyphenyl)-2-((1-methylpiperidin-4-yl)oxy)ethyl)-5-methyl-6-(oxazol-2-yl)-2,4-dioxo-1,4-dihydrothieno[2,3-d]pyrimidin-3(2H)-yl)-2-methylpropionic Acid]",23.3,
"COc1ccccc1C(Cn1c(=O)n(C2CN(C(=O)N3CC(C)(C(=O)O)C3)C2)c(=O)c2c(C)c(-c3ncco3)sc21)OC1CCOCC1 (stereo not shown) [Example 15, 1-(3-(1-(2-(2-methoxyphenyl)-2-((tetrahydro-2H-pyran-4-yl)oxy)ethyl)-5-methyl-6-(oxazol-2-yl)-2,4-dioxo-1,2-dihydrothieno[2,3-d]pyrimidin-3 (4H)-yl)azetidine-1-carbonyl)-3-methylazetidine-3-carboxylic Acid]",8.79,
COc1ccccc1C(Cn1c(=O)n(C(C)(C)C(=O)O)c(=O)c2c(C)c(-c3ncco3)sc21)OC1CCNCC1 (stereo not shown) [Example 17],7.66,
"COc1ccccc1[C@H](Cn1c(=O)n([C@H]2C[C@](C)(C(=O)O)C2)c(=O)c2c(C)c(-c3ncco3)sc21)OC1CCOCC1 [Example 3, (1R,3r)-3-(1-((R)-2-(2-methoxyphenyl)-2-((tetrahydro-2H-pyran-4-yl)oxy)ethyl)-5-methyl-6-(oxazol-2-yl)-2,4-dioxo-1,4-dihydrothieno[2,3-d]pyrimidine-3(2H)-yl)-1-methylcyclobutanecarboxylic Acid]",1,11.9
"COc1ccccc1C(Cn1c(=O)n(C2CN(C(=O)c3ccccn3)C2)c(=O)c2c(C)c(-c3ncco3)sc21)OC1CCOCC1 (stereo not shown) [Example 13, 1-(2-(2-methoxyphenyl)-2-((tetrahydro-2H-pyran-4-yl)oxy)ethyl)-5-methyl-6-(oxazol-2-yl)-3-(1-pyridineformylazetidin-3-yl)thieno[2,3-d]pyrimidine-2,4(1H,3H)-dione]",2.33,11.6
"COc1ccccc1C(Cn1c(=O)n(-c2cc(C(=O)O)ccc2F)c(=O)c2c(C)c(-c3ncco3)sc21)OC1CCOCC1 (stereo not shown) [Example 30, 4-Fluoro-3-(1-(2-(2-methoxyphenyl)-2-((tetrahydro-2H-pyran-4-yl)oxy)ethyl)-5-methyl-6-(oxazol-2-yl)-2,4-dioxo-1,4-dihydrothieno[2,3-d]pyrimidin-3(2H)-yl)benzoic Acid]",7.97,
"COc1ccccc1C(Cn1c(=O)n(C2CNC2)c(=O)c2c(C)c(-c3ncco3)sc21)OC1CCOCC1 (stereo not shown) [Example 6, 3-(azetidin-3-yl)-1-(2-(2-methoxyphenyl)-2-((tetrahydro-2H-pyran-4-yl)oxy)ethyl)-5-methyl-6-(oxazol-2-yl)thieno[2,3-d]pyrimidine-2,4(1H,3H)-dione]",2.81,9.64
"COc1ccccc1C(Cn1c(=O)n(-c2c(C)ccn3ccnc23)c(=O)c2c(C)c(-c3ncco3)sc21)OC1CCOCC1 (stereo not shown) [Example 5, 1-(2-(2-methoxyphenyl)-2-((tetrahydro-2H-pyran-4-yl)oxy)ethyl)-5-methyl-3-(7-methylimidazo[1,2-a]pyridin-8-yl)-6-(oxazol-2-yl)thieno[2,3-d]pyrimidine-2,4(1H, 3H)-diketone]",38.5,
COc1ccccc1C(Cn1c(=O)n(C(C)(C)C(=O)O)c(=O)c2c(C)c(-c3ncco3)sc21)OC1CCN(C(=O)C2CC2)CC1 (stereo not shown) [Example 21],0.7,
COc1ccccc1C(Cn1c(=O)n(C2CN(C(=O)c3ncc[nH]3)C2)c(=O)c2c(C)c(-c3ncco3)sc21)OC1CCOCC1 (stereo not shown) [Example 14],1.69,7.85
"COc1ccccc1C(Cn1c(=O)n(C2CN(C(=O)N3CCOCC3)C2)c(=O)c2c(C)c(-c3ncco3)sc21)OC1CCOCC1 (stereo not shown) [Example 12, 1-(2-(2-methoxyphenyl)-2-((tetrahydro-2H-pyran-4-yl)oxy)ethyl)-5-methyl-3-(1-(morpholine-4-formyl)azetidin-3-yl)-6-(oxazol-2-yl)thieno[2,3-d]pyrimidine-2,4(1H,3H)-dione]",1.22,8.04
COc1ccccc1C(Cn1c(=O)n(C(C)(C)C(=O)O)c(=O)c2c(C)c(-c3ncco3)sc21)OC1CN(C(C)=O)C1 (stereo not shown) [Example 23],11.5,
"COc1ccccc1C(Cn1c(=O)n(C2CC(F)(F)C2)c(=O)c2c(C)c(-c3ncco3)sc21)OC1CCOCC1 (stereo not shown) [Example 2, 3-(3,3-Difluorocyclobutyl)-1-(2-(2-methoxyphenyl)-2-((tetrahydro-2H-pyran-4-yl)oxy)ethyl)-5-methyl-6-(oxazol-2-yl)thieno[2,3-d]pyrimidine-2,4(1H,3H)-dione]",8.7,

# Results, then the molecule that gave them:
IC50 (ACC1) [nM],IC50 (ACC2) [nM],Compound
2.13,14.1,"COc1ccccc1C(Cn1c(=O)n(-c2cccc(C(=O)O)c2OC)c(=O)c2c(C)c(-c3ncco3)sc21)OC1CCOCC1 (stereo not shown) [Example 29, 2-Methoxy-3-(1-(2-(2-methoxyphenyl)-2-((tetrahydro-2H-pyran-4-yl)oxy)ethyl)-5-methyl-6-(oxazol-2-yl)-2,4-dioxo-1,4-dihydrothieno[2,3-d]pyrimidin-3(2H)-yl)benzoic Acid]"
136,,COc1ccccc1C(Cn1c(=O)n(C2CC(OCCF)C2)c(=O)c2c(C)c(-c3ncco3)sc21)OC1CCOCC1 (stereo not shown) [Example 31]
0.87,10.3,"COc1ccccc1C(Cn1c(=O)n(-c2ccc(C(=O)O)cc2OC)c(=O)c2c(C)c(-c3ncco3)sc21)OC1CCOCC1 (stereo not shown) [Example 26, 3-methoxy-4-(1-(2-(2-methoxyphenyl)-2-((tetrahydro-2H-pyran-4-yl)oxy)ethyl)-5-methyl-6-(oxazol-2-yl)-2,4-dioxo-1,4-dihydrothieno[2,3-d]pyrimidin-3(2H)-yl)benzoic Acid]"
1.48,7.8,"COc1ccccc1C(Cn1c(=O)n(-c2cccc(C(=O)O)c2F)c(=O)c2c(C)c(-c3ncco3)sc21)OC1CCOCC1 (stereo not shown) [Example 28, 2-Fluoro-3-(1-(2-(2-methoxyphenyl)-2-((tetrahydro-2H-pyran-4-yl)oxy)ethyl)-5-methyl-6-(oxazol-2-yl)-2,4-dioxo-1,4-dihydrothieno[2,3-d]pyrimidin-3(2H)-yl)benzoic Acid]"
11.8,,COc1ccccc1C(Cn1c(=O)n(-c2cc(C(=O)O)ccc2OC)c(=O)c2c(C)c(-c3ncco3)sc21)OC1CCOCC1 (stereo not shown) [Example 27]
0.91,8.03,"COc1ccccc1C(Cn1c(=O)n(C(C)(C)C(=O)O)c(=O)c2c(C)c(-c3ncco3)sc21)OC1CCN(C(C)=O)CC1 (stereo not shown) [Example 20, 2-(1-(2-((1-acetylpiperidin-4-yl)oxy)-2-(2-methoxyphenyl)ethyl)-5-methyl-6-(oxazol-2-yl)-2,4-dioxo-1,4-dihydrothieno[2,3-d]pyrimidin-3(2H)-yl)-2-methylpropionic Acid]"
2.03,7.92,"COc1ccccc1C(Cn1c(=O)n(C2CN(S(C)(=O)=O)C2)c(=O)c2c(C)c(-c3ncco3)sc21)OC1CCOCC1 (stereo not shown) [Example 9, 1-(2-(2-methoxyphenyl)-2-((tetrahydro-2H-pyran-4-yl)oxy)ethyl)-5-methyl-3-(1-(methylsulfonyl)azetidin-3-yl)-6-(oxazol-2-yl)thieno[2,3-d]pyrimidine-2,4(1H,3H)-dione]"
> 1000,,"COc1ccccc1C(Cn1c(=O)n(C(C)(C)C(=O)O)c(=O)c2c(C)c(-c3ncco3)sc21)N1CCCCC1 (stereo not shown) [Example 18, 2-(1-(2-(2-methoxyphenyl)-2-(piperidin-1-yl)ethyl)-5-methyl-6-(oxazol-2-yl)-2,4-dioxo-1,4-dihydrothieno[2,3-d]pyrimidin-3(2H)-yl)-2-methylpropionic Acid]"
